The values below come from patent US10336762B2 (priority 2017, dated 2019).

One may read the IC50 as the point on the concentration scale where inhibition reaches its midpoint. By EC50 is commonly meant the midpoint of the concentration-response curve.

Structures are written as SMILES.

For one assay, the target named is IRAK4 enzyme (Homo sapiens (Human), UniProt Q9NWZ3). Briefly: biochemical. The format is biochemical. The settings on record: IRAK4 enzyme, 500 μM ATP.
Another assay concerns TNFα. The assay can be described thus: cells. The format is cell-based, human. The settings on record: Homo sapiens, Monocyte, LPS-stimulated human monocytes, TNFα content; read-out: EC50 TNF.

Sequence of IRAK4 enzyme (Q9NWZ3 whole entry): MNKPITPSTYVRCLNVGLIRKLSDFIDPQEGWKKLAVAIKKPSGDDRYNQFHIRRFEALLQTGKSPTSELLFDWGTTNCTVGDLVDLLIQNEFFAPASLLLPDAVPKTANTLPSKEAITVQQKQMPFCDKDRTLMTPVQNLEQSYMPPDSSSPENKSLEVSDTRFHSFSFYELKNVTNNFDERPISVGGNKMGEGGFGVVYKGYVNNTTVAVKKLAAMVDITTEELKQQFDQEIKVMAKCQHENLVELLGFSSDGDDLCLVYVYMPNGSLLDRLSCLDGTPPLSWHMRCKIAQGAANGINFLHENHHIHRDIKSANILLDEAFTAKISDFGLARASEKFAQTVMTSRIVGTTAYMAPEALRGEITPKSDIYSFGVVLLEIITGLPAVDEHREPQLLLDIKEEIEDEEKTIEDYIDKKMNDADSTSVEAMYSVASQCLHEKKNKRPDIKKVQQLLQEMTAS

For the compound `CC(C)(O)[C@H](F)CNC(=O)c1cnc(-c2ccc3cc(C#N)cnn23)cc1N[C@H]1CC[C@H](N2CCOC2=O)CC1` [Example 392, 6-(3-cyanopyrrolo[1,2-b]pyridazin-7-yl)-N-((R)-2-fluoro-3-hydroxy-3-methylbutyl)-4-(((1r,4R)-4-(2-oxooxazolidin-3-yl)cyclohexyl)amino) nicotinamide], the IC50 against IRAK4 enzyme (TR-FRET) is under 1 nM. Also, the EC50 in the assay with TNFα was determined as 50 nM.
The like results for `CC(C)(O)[C@H](F)CNC(=O)c1cnc(-c2ccc3cc(C#N)cnn23)cc1NC12CCC(C(=O)N3CC(C(F)F)C3)(CC1)CC2` [Example 393, (R)-6-(3-cyanopyrrolo[1,2-b]pyridazin-7-yl)-4-((4-(3-(difluoromethyl)azetidine-1-carbonyl)bicyclo[2.2.2]octan-1-yl)amino)-N-(2-fluoro-3-hydroxy-3-methylbutyl)nicotinamide] were, in that order, under 1 nM and 44 nM.
The like results for `CC1(F)CN(C(=O)C23CCC(Nc4cc(-c5ccc6cc(C#N)cnn56)ncc4C(=O)NC[C@@H](F)C(C)(C)O)(CC2)CC3)C1` [Example 394, (R)-6-(3-cyanopyrrolo[1,2-b]pyridazin-7-yl)-N-(2-fluoro-3-hydroxy-3-methylbutyl)-4-((4-(3-fluoro-3-methylazetidine-1-carbonyl)bicyclo[2.2.2]octan-1-yl)amino) nicotinamide] were, in that order, 1 nM and 68 nM.
On IRAK4 enzyme (TR-FRET), `CC(C)(O)[C@H](F)CNC(=O)c1cnc(-c2ccc3cc(C#N)cnn23)cc1NC12CCC(C(=O)N3CCN(C4COC4)CC3)(CC1)CC2` [Example 395, (R)-6-(3-cyanopyrrolo[1,2-b]pyridazin-7-yl)-N-(2-fluoro-3-hydroxy-3-methylbutyl)-4-((4-(4-(oxetan-3-yl)piperazine-1-carbonyl)bicyclo[2.2.2]octan-1-yl)amino) nicotinamide] came in with an IC50 of 3 nM. In addition, the EC50 in the assay on TNFα was determined as 256 nM.
`COC1CN(C(=O)C23CCC(Nc4cc(-c5ccc6cc(C#N)cnn56)ncc4C(=O)NC[C@@H](F)C(C)(C)O)(CC2)CC3)C1` [Example 396, (R)-6-(3-cyanopyrrolo[1,2-b]pyridazin-7-yl)-N-(2-fluoro-3-hydroxy-3-methylbutyl)-4-((4-(3-methoxyazetidine-1-carbonyl)bicyclo[2.2.2]octan-1-yl)amino) nicotinamide]: the midpoint of inhibition against IRAK4 enzyme (TR-FRET), the IC50, lay at 1 nM. The EC50 in the assay with TNFα was determined as 24 nM.
On IRAK4 enzyme (TR-FRET (HTRF)), `COCCNC(=O)C12CCC(Nc3cc(-c4ccc5cc(C#N)cnn45)ncc3C(=O)NC[C@@H](F)C(C)(C)O)(CC1)CC2` [Example 397, (R)-6-(3-cyanopyrrolo[1,2-b]pyridazin-7-yl)-N-(2-fluoro-3-hydroxy-3-methylbutyl)-4-((4-((2-methoxyethyl)carbamoyl)bicyclo[2.2.2]octan-1-yl)amino)nicotinamide] displayed an IC50 of 1 nM. Also, the EC50 with TNFα came out at 30 nM.
The like results for `CC(C)(O)[C@H](F)CNC(=O)c1cnc(-c2ccc3cc(C#N)cnn23)cc1NC12CCC(C(N)=O)(CC1)CC2` [Example 398, (R)-4-((4-carbamoylbicyclo[2.2.2]octan-1-yl)amino)-6-(3-cyanopyrrolo[1,2-b]pyridazin-7-yl)-N-(2-fluoro-3-hydroxy-3-methyl-butyl)nicotinamide] were, in that order, under 1 nM and 17 nM.
At IRAK4 enzyme (TR-FRET (HTRF)), `CC(C)(O)[C@H](F)CNC(=O)c1cnc(-c2ccc3cc(C#N)cnn23)cc1NC12CCC(N3CCOC3=O)(CC1)CC2` [Example 399, 6-(3-cyanopyrrolo[1,2-b]pyridazin-7-yl)-N-((R)-2-fluoro-3-hydroxy-3-methylbutyl)-4-((4-(2-oxooxazolidin-3-yl)bicyclo[2.2.2]octan-1-yl)amino)nicotinamide] displayed an IC50 of under 1 nM. The EC50 with TNFα came to 8 nM.
The matching figures for `CC(C)(O)[C@H](F)CNC(=O)c1cnc(-c2ccc3cc(C#N)cnn23)cc1NC12CCC(C(=O)N3CC(F)C3)(CC1)CC2` [Example 400, (R)-6-(3-cyanopyrrolo[1,2-b]pyridazin-7-yl)-N-(2-fluoro-3-hydroxy-3-methylbutyl)-4-((4-(3-fluoroazetidine-1-carbonyl)bicyclo[2.2.2]octan-1-yl)amino) nicotinamide]: 1 nM and 21 nM.
Consider `CC(C)(O)[C@H](F)CNC(=O)c1cnc(-c2ccc3cc(C#N)cnn23)cc1NC12CCC(C(=O)N3CCOCC3)(CC1)CC2` [Example 401, (R)-6-(3-cyanopyrrolo[1,2-b]pyridazin-7-yl)-N-(2-fluoro-3-hydroxy-3-methylbutyl)-4-((4-(morpholine-4-carbonyl)bicyclo[2.2.2]octan-1-yl)amino)nicotinamide], for which the half-maximal inhibitory concentration (IC50) at IRAK4 enzyme (TR-FRET (HTRF)) came out at 2 nM. For the same compound, in the assay on TNFα, the EC50 stood at 65 nM.
Turning to `N#Cc1cnn2c(-c3cc(NC45CCC(O)(CC4)CC5)c(C(=O)NC45CCC(O)(CC4)CC5)cn3)ccc2c1` [Example 402, 6-(3-cyanopyrrolo[1,2-b]pyridazin-7-yl)-N-(4-hydroxybicyclo[2.2.2]octan-1-yl)-4-((4-hydroxy-bicyclo[2.2.2]octan-1-yl)amino)nicotinamide], the half-maximal inhibitory concentration (IC50) against IRAK4 enzyme (TR-FRET (HTRF)) came to 2 nM. In the assay on TNFα, the EC50 was found to be 77 nM.
The like results for `CC(C)(O)[C@H](F)CNC(=O)c1cnc(-c2ccc3cc(C#N)cnn23)cc1NC12CCC(O)(CC1)C2` [Example 403, (R)-6-(3-cyanopyrrolo[1,2-b]pyridazin-7-yl)-N-(2-fluoro-3-hydroxy-3-methylbutyl)-4-((4-hydroxybicyclo[2.2.1]heptan-1-yl)amino) nicotinamide] were, in that order, under 1 nM and 14 nM.
The like results for `[2H]C([2H])([2H])N(C(=O)C12CCC(Nc3cc(-c4ccc5cc(C#N)cnn45)ncc3C(=O)NC[C@@H](F)C(C)(C)O)(CC1)CC2)C([2H])([2H])[2H]` [Example 404, (R)-4-((4-(bis(methyl-d3)carbamoyl)bicyclo[2.2.2]octan-1-yl)amino)-6-(3-cyanopyrrolo[1,2-b]pyridazin-7-yl)-N-(2-fluoro-3-hydroxy-3-methylbutyl)nicotinamide] were, in that order, 1 nM and 11 nM.
The matching figures for `CC(C)(O)[C@H](F)CNC(=O)c1cnc(-c2ccc3cc(C#N)cnn23)cc1NC12CCC(N3CCC3=O)(CC1)CC2` [Example 405, 6-(3-cyanopyrrolo[1,2-b]pyridazin-7-yl)-N-((R)-2-fluoro-3-hydroxy-3-methylbutyl)-4-((4-(2-oxoazetidin-1-yl)bicyclo[2.2.2]octan-1-yl)amino)nicotinamide]: 1 nM and 12 nM.
Turning to `CC(C)(O)[C@H](F)CNC(=O)c1cnc(-c2ccc3cc(C#N)cnn23)cc1NC12CCC(C(=O)NC3CC3)(CC1)CC2` [Example 406, (R)-6-(3-cyanopyrrolo[1,2-b]pyridazin-7-yl)-4-((4-(cyclopropylcarbamoyl)bicyclo[2.2.2]octan-1-yl)amino)-N-(2-fluoro-3-hydroxy-3-methylbutyl) nicotinamide], the IC50 against IRAK4 enzyme (TR-FRET (HTRF)) stood at 1 nM. For the same compound, the concentration giving a half-maximal response (EC50) with TNFα came to 33 nM.
For `CCNC(=O)C12CCC(Nc3cc(-c4ccc5cc(C#N)cnn45)ncc3C(=O)NC[C@@H](F)C(C)(C)O)(CC1)CC2` [Example 407, (R)-6-(3-cyanopyrrolo[1,2-b]pyridazin-7-yl)-4-((4-(ethyl-carbamoyl)bicyclo[2.2.2]octan-1-yl)amino)-N-(2-fluoro-3-hydroxy-3-methylbutyl)nicotinamide], the IC50 at IRAK4 enzyme (TR-FRET (HTRF)) was found to be 2 nM. For the same compound, the EC50 with TNFα is 20 nM.
The like results for `CC(C)(O)[C@H](F)CNC(=O)c1cnc(-c2ccc3cc(C#N)cnn23)cc1NC12CCC(C(=O)N3CCC3)(CC1)CC2` [Example 408, (R)-4-((4-(azetidine-1-carbonyl)bicyclo[2.2.2]octan-1-yl)amino)-6-(3-cyanopyrrolo[1,2-b]pyridazin-7-yl)-N-(2-fluoro-3-hydroxy-3-methylbutyl)nicotinamide] were, in that order, 1 nM and 31 nM.
The like results for `CC(C)(O)[C@H](F)CNC(=O)c1cnc(-c2ccc3cc(C#N)cnn23)cc1NC12CCC(C(=O)N3CC(F)(F)C3)(CC1)CC2` [Example 409, (R)-6-(3-cyanopyrrolo[1,2-b]pyridazin-7-yl)-4-((4-(3,3-difluoroazetidine-1-carbonyl)bicyclo[2.2.2]octan-1-yl)amino)-N-(2-fluoro-3-hydroxy-3-methylbutyl)nicotinamide] were, in that order, 1 nM and 17 nM.
The like results for `CC(C)(O)[C@H](F)CNC(=O)c1cnc(-c2ccc3cc(C#N)cnn23)cc1NC12CCC(C(=O)NC34CC(C3)C4)(CC1)CC2` [Example 410, (R)-4-((4-(bicyclo[1.1.1]pentan-1-ylcarbamoyl)bicyclo[2.2.2]octan-1-yl)amino)-6-(3-cyano-pyrrolo[1,2-b]pyridazin-7-yl)-N-(2-fluoro-3-hydroxy-3-methylbutyl) nicotinamide] were, in that order, 2 nM and 50 nM.
For the compound `CN(C)C(=O)OC12CCC(Nc3cc(-c4ccc5cc(C#N)cnn45)ncc3C(=O)NC[C@@H](F)C(C)(C)O)(CC1)CC2` [Example 411, (R)-4-((2-(3-cyano-pyrrolo[1,2-b]pyridazin-7-yl)-5-((2-fluoro-3-hydroxy-3-methylbutyl)carbamoyl)pyridin-4-yl)amino)bicyclo[2.2.2] octan-1-yl dimethylcarbamate], the IC50 on IRAK4 enzyme (TR-FRET (HTRF)) was determined as 2 nM. Also, in the assay on TNFα, the EC50 came to 62 nM.
The like results for `CNC(=O)OC12CCC(Nc3cc(-c4ccc5cc(C#N)cnn45)ncc3C(=O)NC[C@@H](F)C(C)(C)O)(CC1)CC2` [Example 412, (R)-4-((2-(3-cyanopyrrolo[1,2-b]pyridazin-7-yl)-5-((2-fluoro-3-hydroxy-3-methylbutyl)carbamoyl)pyridin-4-yl)amino)bicyclo[2.2.2]octan-1-yl methylcarbamate] were, in that order, 1 nM and 44 nM.
The like results for `CC(C)(O)[C@H](F)CNC(=O)c1cnc(-c2ccc3cc(C#N)cnn23)cc1Nc1ccc(C#N)cn1` [Example 413, (R)-4-((5-cyanopyridin-2-yl)amino)-6-(3-cyano-pyrrolo[1,2-b]pyridazin-7-yl)-N-(2-fluoro-3-hydroxy-3-methylbutyl) nicotinamide] were, in that order, under 1 nM and 98 nM.
